Laboratory results from US9107411B2, “Indolecarboxamides and benzimidazolecarboxamides as insecticides and acaricides” (BAYER INTELLECTUAL PROPERTY GMBH, priority 2011, dated 2015).
Read-outs that look alike come from different tables or passages of the source.

How the values were obtained:
Phaedon cochleariae = assay: Phaedon test (PHAECO spray treatment); type: in vivo; settings: Chinese cabbage leaf discs, after 7 days
Method: Phaedon Test ([…] Spray Treatment) Solvent: 78.0 parts by weight of acetone • • 1.5 parts by weight of dimethylformamide Emulsifier: 0.5 part by weight of alkylaryl polyglycol ether To produce an appropriate active ingredient formulation, 1 part by weight of active ingredient is mixed with the stated amounts of solvent and emulsifier, and the concentrate is diluted with emulsifier-containing water to the desired concentration. Leaf discs of Chinese cabbage (Brassica pekinensis) are sprayed with an active ingredient formulation of the desired concentration and, after drying, populated with larvae of the mustard beetle (Phaedon cochleariae). After 7 days, the efficacy in % is determined. 100% means that all of the beetle larvae have been killed; 0% means that none of the beetle larvae have been killed.

logP (HPLC-MS) = type: physicochemical
Spodoptera frugiperda = Spodoptera frugiperda test (SPODFR spray treatment); type: in vivo; settings: maize leaf discs, after 7 days
Method: Spodoptera frugiperda Test (SPODFR Spray Treatment) Solvent: 78.0 parts by weight of acetone • • 1.5 parts by weight of dimethylformamide To produce an appropriate active ingredient formulation, 1 part by weight of active ingredient is mixed with the stated amounts of solvent and emulsifier, and the concentrate is diluted with emulsifier-containing water to the desired concentration. Leaf discs of maize (Zea mays) are sprayed with an active ingredient formulation of the desired concentration and, after drying, populated with caterpillars of the armyworm (Spodoptera frugiperda). After 7 days, the efficacy in % is determined 100% means that all of the caterpillars have been killed; 0% means that none of the caterpillars have been killed.

Tetranychus urticae = assay: Tetranychus test, OP-resistant (TETRUR spray treatment); type: in vivo; settings: bean leaf discs, after 6 days
Method: Tetranychus Test, OP-Resistant (TETRUR Spray Treatment)
Solvent: 78.0 parts by weight of acetone • • 1.5 parts by weight of dimethylformamide
Emulgator: 0.5 part by weight of alkylaryl polyglycol ether
To produce an appropriate active ingredient formulation, 1 part by weight of active ingredient is mixed with the stated amounts of solvent and emulsifier, and the concentrate is diluted with emulsifier-containing water to the desired concentration.
Discs of bean leaves (Phaseolus vulgaris) infested by all stages of the red spider mite (Tetranychus urticae) are sprayed with an active ingredient formulation of the desired concentration.
After 6 days, the efficacy in % is determined. 100% means that all of the spider mites have been killed; 0% means that none of the spider mites have been killed.

[1] = HPLC, reversed-phase column (C18), acidic range pH 2.7, acetonitrile (0.1% formic acid)/water gradient, 43° C., calibration with unbranched alkan-2-ones
[2] = HPLC, reversed-phase column (C18), 43° C., acidic range pH 2.7, EEC directive 79/831 Annex V.A8, two values = both regioisomers (G = N)
[3] = Phaedon cochleariae, foliar, 168 h, application rate 100 g/ha, read-out: efficacy in %
[4] = HPLC, reversed-phase column (C18), acidic range pH 2.7, acetonitrile (0.1% formic acid)/water gradient, 43° C., calibration with unbranched alkan-2-ones, read-out: log p

Row | SMILES | efficacy in % (Phaedon cochleariae; application rate 100 g/ha) | log p (logP (HPLC-MS); [1]) | efficacy in % (Spodoptera frugiperda; application rate 100 g/ha) | efficacy in % (Tetranychus urticae; application rate 100 g/ha) | log p (logP (HPLC-MS); [2]) | also measured
1 | C#CCn1c(C(=O)NC(c2cccc(Cl)c2)C(F)(F)F)cc2cc(C(=O)NC3(C#N)CC3)c(Cl)cc21 (centres unmarked) [Compound 58] | 100% | 3.42 | 100% | 100% | – | –
2 | CCn1c(C(=O)NC(c2ccc3c(c2)OC(F)(F)O3)C(F)(F)F)cc2cc(C(=O)NC3(C#N)CC3)c(C)cc21 (centres unmarked) [Compound 308] | 100% | – | 100% | 90% | 3.80 | –
3 | C#CCn1c(C(=O)NC(c2cc(Cl)c(Cl)c(Cl)c2)C(F)(F)F)cc2cc(C(=O)NC3(C#N)CC3)c(Cl)cc21 (centres unmarked) [Compound 277] | 100% | 4.24 | 100% | 90% | – | –
4 | N#CCn1c(C(=O)NC(c2cccc(C(F)(F)F)c2)C(F)(F)F)cc2cc(C(=O)NC3(C#N)CC3)c(Cl)cc21 (centres unmarked) [Compound 294] | 100% | – | – | – | 3.30 | efficacy in % (Tetranychus urticae; application rate 500 g/ha): 100%
5 | Cn1c(C(=O)NC(c2cccc(Br)c2)C(F)(F)F)cc2cc(C(=O)NC3CC3)c(Cl)cc21 (centres unmarked) [Compound 47] | 100% | 3.42 | – | 90% | – | –
6 | C#CCn1c(C(=O)NC(c2cc(Cl)cc(Cl)c2)C(F)(F)F)cc2cc(C(=O)NC3(C#N)CC3)c(Cl)cc21 (centres unmarked) [Compound 66] | 100% | 3.87 | 100% | 100% | – | –
7 | CCn1c(C(=O)NC(c2ccc(Cl)c(Cl)c2)C(F)(F)F)cc2cc(C(=O)NC3CC3)c(C)cc21 (centres unmarked) [Compound 297] | 100% | – | 100% | 100% | 3.99 | –
8 | C#CCC(C#N)NC(=O)c1cc2cc(C(=O)NC(c3cccc(C(F)(F)F)c3)C(F)(F)F)n(CC)c2cc1Cl (centres unmarked) [Compound 268] | 100% | 3.91 | 100% | 100% | – | –
9 | CCn1c(C(=O)NC(c2cc(Cl)cc(Cl)c2)C(F)(F)F)cc2cc(C(=O)NC3(C#N)CC3)c(Cl)cc21 (centres unmarked) [Compound 43] | 100% | 4.14 | 100% | 100% | – | –
10 | CCn1c(C(=O)NC(c2cccc(C(F)(F)F)c2)C(F)(F)F)cc2cc(C(=O)NC3(C(N)=S)CC3)c(Cl)cc21 (centres unmarked) [Compound 273, N^5-(1-carbamothioylcyclopropyl)-6-chloro-1-ethyl-N^2-{2,2,2-trifluoro-1-[3-(trifluoromethyl)phenyl]ethyl}-1H-indole-2,5-dicarboxamide] | – | – | 100% | 100% | – | pest or weed control at 100 g/ha (Phaedon cochleariae; [3]): 100%; chromatographic logP (logP (HPLC-MS); [4]): 3.56; chromatographic logP (logP (HPLC-MS); HPLC-MS): 3.56
11 | CCn1c(C(=O)NC(c2cccc(C(F)(F)F)c2)C(F)(F)F)nc2cc(C(=O)NC3CC3)c(Cl)cc21 (centres unmarked) [Compound 4, 6-chloro-N^5-cyclopropyl-1-ethyl-N^2-{2,2,2-trifluoro-1-[3-(trifluoromethyl)phenyl]ethyl}-1H-benzimidazole-2,5-dicarboxamide] | – | – | – | – | – | pest or weed control at 500 g/ha (Phaedon cochleariae; Phaedon cochleariae, foliar, 168 h, application rate 500 g/ha, read-out: efficacy in %): 100%; chromatographic logP (logP (HPLC-MS); [4]): 3.67; chromatographic logP (logP (HPLC-MS); HPLC-MS): 3.71; efficacy in % (Spodoptera frugiperda; application rate 500 g/ha): 100%; efficacy in % (Tetranychus urticae; application rate 500 g/ha): 100%
12 | CCn1c(C(=O)NC(c2ccc(F)c(C(F)(F)F)c2)C(F)(F)F)cc2cc(C(=O)NC(C)C)c(C)cc21 (centres unmarked) [Compound 305] | 100% | – | 100% | 100% | 4.16 | –
13 | CCn1c(C(=O)NC(c2cccc(C(F)(F)F)c2)C(F)(F)F)c(C#N)c2cc(C(=O)NC3(C#N)CC3)c(Cl)cc21 (centres unmarked) [Compound 279, 6-chloro-3-cyano-N5-(1-cyanocyclopropyl)-1-ethyl-N2-{2,2,2-trifluoro-1-[3-(trifluoromethyl)phenyl]ethyl}-1H-indole-2,5-dicarboxamide] | – | – | 100% | 100% | – | pest or weed control at 100 g/ha (Phaedon cochleariae; [3]): 100%; chromatographic logP (logP (HPLC-MS); HPLC, reversed-phase column (C18), 43° C., acidic range pH 2.7, EEC directive 79/831 Annex V.A8, two values = both regioisomers (G = N), read-out: log p): 3.45; chromatographic logP (logP (HPLC-MS); HPLC-MS): 3.45
14 | CCn1c(C(=O)NC(c2cc(F)cc(Cl)c2)C(F)(F)F)cc2cc(C(=O)NC3CC3)c(C)cc21 (centres unmarked) [Compound 298] | 100% | – | 100% | 100% | 3.77 | –
15 | CCn1c(C(=O)NC(c2cc(F)cc(Cl)c2)C(F)(F)F)cc2cc(C(=O)NC3(C#N)CC3)c(C)cc21 (centres unmarked) [Compound 293] | 100% | – | 100% | 100% | 3.85 | –
16 | Cn1c(C(=O)NC(c2ccc(F)c(Cl)c2)C(F)(F)F)cc2cc(C(=O)NC3CC3)c(Cl)cc21 (centres unmarked) [Compound 53] | 100% | 3.42 | 100% | 100% | – | –
17 | C#CCn1c(C(=O)NC(c2cccc(Br)c2)C(F)(F)F)cc2cc(C(=O)NC3CC3)c(Cl)cc21 (centres unmarked) [Compound 59] | – | 3.44 | 100% | 100% | – | –
18 | C#CCn1c(C(=O)NC(c2cccc(OC(F)F)c2)C(F)(F)F)cc2cc(C(=O)NC3CC3)c(Cl)cc21 (centres unmarked) [Compound 278] | 100% | 3.32 | 100% | 90% | – | –
19 | CCN(CC)C(=O)c1cc2cc(C(=O)NC(c3ccc(F)c(Cl)c3)C(F)(F)F)n(CC)c2cc1C (centres unmarked) [Compound 320] | 100% | – | 100% | 100% | 4.35 | –
20 | Cn1c(C(=O)NC(c2ccc(F)c(Br)c2)C(F)(F)F)cc2cc(C(=O)NC3CC3)c(Cl)cc21 (centres unmarked) [Compound 51] | 100% | 3.61 | 100% | 100% | – | –
21 | N#CC1(NC(=O)c2cc3cc(C(=O)NC(c4cccc(C(F)(F)F)c4)C(F)(F)F)n(Cc4ccccc4)c3cc2Cl)CC1 (centres unmarked) [Compound 284] | 100% | – | 100% | 100% | 4.07 | –
22 | CCn1c(C(=O)NC(c2cccc(C(F)(F)F)c2)C(F)(F)F)cc2cc(C(=O)NCCC#N)c(Cl)cc21 (centres unmarked) [Compound 263] | 100% | 3.53 | 100% | 100% | – | –
23 | CCn1c(C(=O)NC(c2ccc(F)c(F)c2)C(F)(F)F)cc2cc(C(=O)NC3(C#N)CC3)c(C)cc21 (centres unmarked) [Compound 292] | 100% | – | 100% | 100% | 3.48 | –
24 | N#CC1(NC(=O)c2cc3cc(C(=O)NC(c4cccc(C(F)(F)F)c4)C(F)(F)F)n(C4CCC4)c3cc2Cl)CC1 (centres unmarked) [Compound 274] | – | 4.03 | – | – | – | efficacy in % (Phaedon cochleariae; application rate 500 g/ha): 100%; efficacy in % (Spodoptera frugiperda; application rate 500 g/ha): 100%; efficacy in % (Tetranychus urticae; application rate 500 g/ha): 100%
25 | CCn1c(C(=O)NC(c2cccc(C(F)(F)F)c2)C(F)(F)F)cc2cc(C(=O)NC(C)C#N)c(Cl)cc21 (centres unmarked) [Compound 9] | 100% | 3.72 | 100% | 90% | – | –
26 | CCn1c(C(=O)NC(c2cc(Cl)c(F)c(Cl)c2)C(F)(F)F)cc2cc(C(=O)NC3CC3)c(C)cc21 (centres unmarked) [Compound 296] | 100% | – | 100% | 100% | 4.16 | –
27 | N#CC1(NC(=O)c2cc3cc(C(=O)NC(c4cccc(C(F)(F)F)c4)C(F)(F)F)n(COCc4ccccc4)c3cc2Cl)CC1 (centres unmarked) [Compound 286] | 100% | – | – | 100% | 4.17 | –
28 | C#CCn1c(C(=O)NC(c2cc(Cl)cc(Cl)c2)C(F)(F)F)cc2cc(C(=O)NC3CC3)c(Cl)cc21 (centres unmarked) [Compound 65] | – | 3.90 | 100% | 100% | – | –
29 | CCn1c(C(=O)NC(c2cc(Cl)cc(Cl)c2)C(F)(F)F)nc2cc(C(=O)NC3CC3)c(Cl)cc21 (centres unmarked) [Compound 317] | – | – | – | – | – | efficacy in % (Phaedon cochleariae; application rate 500 g/ha): 100%; efficacy in % (Spodoptera frugiperda; application rate 500 g/ha): 100%; efficacy in % (Tetranychus urticae; application rate 500 g/ha): 100%
